In ChEMBL document CHEMBL4145450, “Colchicine prodrugs and codrugs: Chemistry and bioactivities” (Eur J Med Chem, 2018):

Assay: Displacement of [125I]-ASOR from asialoglycoprotein receptor in mouse parenchymal liver cells after 2 hrs

## COc1cc2c(c(OC)c1OC)-c1ccc(OC)c(=O)cc1[C@@H](NC(=O)CCSSCCC(=O)NC(CCCCNC(=O)[C@@H](CCCCNC(=O)CCCCO[C@@H]1O[C@H](CO)[C@H](O)[C@H](O)[C@H]1NC(C)=O)NC(=O)CCCCO[C@@H]1O[C@H](CO)[C@H](O)[C@H](O)[C@H]1NC(C)=O)C(=O)O)CC2 (stereo partly specified)
  Ki: 4.5 nM
